Assay results as given in US20230107742A1, “SYNERGISTIC EFFECTS, AUGMENTING ANTIMICROBAL EFFECTS OF LIPIDS” (CAPRETTO EHF., priority 2016, published 2023).

How the values were obtained:
[1] = system: Enveloped viruses, such as HSV-1, VSV and visna virus; conditions: more active than the free acid; cited from earlier work
[2] = system: Streptococcus pneumoniae (ATCC 49619); assay: Agar petri dish test, plates wetted with 20 μl formulation, read after 24 hours; conditions: ethanol 5% in mPEG 95% (control)
[3] = system: Haemophilus influenza (NCTC 8468); assay: as above; type: cell-based; conditions: ethanol 5% in mPEG 95% (control)
[4] = system: Staphylococcus aureus (ATCC 25923); assay: as above; conditions: ethanol 5% in mPEG 95% (control)
Method: Formulations according to the invention were tested towards three bacterial strains: Staphylococcus aureus (ATCC 25923), Streptococcus pneumoniae (ATCC 49619), Haemophilus influenza (NCTC 8468). The bacteria were distributed in a thin layer across a petri dish with agar. Two plates were wetted with 20 μl of each formulation. The bacteria were allowed to grow at 37° C. for 24 hours. H. influenzae and S. pneumoniae were grown under CO2, but S. aureus was grown in normal atmosphere.
Readings of results were carried out 24 hours later.

Structure (SMILES): CCCCCCCCCC(=O)OCC(O)CO (centres unmarked) [Capric acid 1-monoglyceride, capric acid 1-monoglyceride]
- virucidal activity relative to the corresponding free fatty acid (capric, lauric acid) [1]: 10 fold

Structure (SMILES): CCO [ethanol]
- effect of ethanol alone against Streptococcus pneumoniae [2]: essentially no effect
- effect of ethanol alone against Haemophilus influenza [3]: essentially no effect
- effect of ethanol alone against Staphylococcus aureus [4]: essentially no effect

Structure (SMILES): CCCCCCCCCCCC(=O)OCC(O)CO (centres unmarked) [lauric acid 1-monoglyceride]
- virucidal activity relative to the corresponding free fatty acid (capric, lauric acid) [1]: 10 fold
